In data set [1] the test system is hepatitis type B virus (HBV). Nature of the data set: Inhibition of HBV DNA replication in HepG2.2.15 cells. The class given is cell-based. How it is done: The inhibitory effect of the compounds of the present invention on hepatitis type B virus (HBV) was tested. Cytotoxicity and effects on nucleic acid (DNA) replication level of the virus (HBV) of the compounds of the present invention were tested at a virus-cell level.
HepG2.2.15 cells in the logarithmic growth phase were plated in a 96-well plate at a cell concentration of 40 cells per μL. The cells were incubated in a 5% CO2 incubator at 37° C. for 3 days; and the culture medium was replaced with a new one ([…]) before adding compounds. The concentration of the stock solution of each Example compound is 200 μM.

The nature of data set [2]: Cytotoxicity detection (CellTiter-Glo). The class given is cell-based. Particulars: human, HepG2.2.15 cells, highest concentration 150 μM. How it is done:
(§1) The test compounds were diluted to 30 mM with DMSO, with 30 mM as the highest concentration, the compounds were subjected to three-fold serial dilution to various concentrations. 0.2 μL of the compounds at various concentrations were added to a 384-well plate, HepG2.2.15 cells having a concentration of 2000 cells per 50 μL were added to each well, and the highest concentration of the test compounds was 150 μM. 1 μL of DMSO was added to corresponding wells for control. The plate was incubated in a 5% CO2 incubator at 37° C. for 4 days; and 50 μL of CellTiter-Glo was added to each well after 4 days. The plate was read for detection, and a half cytotoxic concentration (CC50) was calculated.
On the technique in general: In ATP-based viability assays light output follows the ATP content of the culture.

Data set [3] deals with T1, hERG potassium ion channel (Homo sapiens, UniProt Q12809).
T1 construct: purchased
T1 sequence (Q12809 whole entry): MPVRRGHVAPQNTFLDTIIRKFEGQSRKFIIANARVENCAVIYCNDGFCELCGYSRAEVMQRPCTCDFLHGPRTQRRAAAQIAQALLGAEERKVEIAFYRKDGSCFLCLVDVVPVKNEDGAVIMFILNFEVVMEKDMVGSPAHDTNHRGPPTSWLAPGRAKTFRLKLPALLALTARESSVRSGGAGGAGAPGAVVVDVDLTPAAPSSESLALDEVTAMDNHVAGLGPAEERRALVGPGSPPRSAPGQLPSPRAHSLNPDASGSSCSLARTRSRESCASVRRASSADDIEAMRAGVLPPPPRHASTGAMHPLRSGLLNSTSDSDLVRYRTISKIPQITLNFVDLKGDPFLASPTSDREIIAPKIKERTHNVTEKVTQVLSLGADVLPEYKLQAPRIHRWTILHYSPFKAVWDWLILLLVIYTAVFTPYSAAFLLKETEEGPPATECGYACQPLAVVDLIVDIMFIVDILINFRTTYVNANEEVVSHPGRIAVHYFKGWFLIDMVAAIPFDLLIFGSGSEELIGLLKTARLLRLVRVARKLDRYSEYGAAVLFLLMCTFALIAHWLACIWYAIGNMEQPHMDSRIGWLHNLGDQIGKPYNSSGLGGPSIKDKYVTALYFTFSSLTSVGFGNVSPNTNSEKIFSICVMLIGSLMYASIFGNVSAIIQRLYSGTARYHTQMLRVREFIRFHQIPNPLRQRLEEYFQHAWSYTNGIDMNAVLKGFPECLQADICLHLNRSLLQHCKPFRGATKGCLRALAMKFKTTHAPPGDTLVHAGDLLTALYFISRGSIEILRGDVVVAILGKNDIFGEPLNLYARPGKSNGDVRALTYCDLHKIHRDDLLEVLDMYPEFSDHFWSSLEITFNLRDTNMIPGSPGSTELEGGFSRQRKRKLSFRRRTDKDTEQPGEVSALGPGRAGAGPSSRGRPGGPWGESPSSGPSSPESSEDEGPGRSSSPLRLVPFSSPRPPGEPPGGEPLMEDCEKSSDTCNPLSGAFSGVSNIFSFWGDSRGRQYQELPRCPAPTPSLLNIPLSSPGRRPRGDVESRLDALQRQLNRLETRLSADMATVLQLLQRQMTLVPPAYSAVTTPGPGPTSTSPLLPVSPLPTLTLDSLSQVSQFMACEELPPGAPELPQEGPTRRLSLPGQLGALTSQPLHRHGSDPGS
Nature of the data set: Predictor hERG Fluorescence Polarization Assay. The class given is binding. The settings on record: hERG fluorescence polarization. The source says:
In cardiac muscle cells, hERG (human Ether-a-go-go Related Gene) coded potassium channel mediates delayed rectifier potassium currents (IKr). IKr inhibition is the most important mechanism of QT interval prolongation caused by a drug.
Employing the Predictor™ hERG Fluorescence Polarization Assay, the effect of the compounds on a hERG potassium ion channel was detected.

Data set [4] in a line: In vivo pharmacokinetics (PK) in rats. The settings on record: male, SD, rat; for Kp: liver/plasma, 2 mg/kg. The method, then:
The test compounds were administrated to male SD rats by intravenous (iv) and by gavage (po), respectively, the doses of the iv and po administration were respectively 1 mg/kg and 2 mg/kg, the solvent system for iv administration was 5% DMSO:5% solutol:90% physiological saline, and the solvent system for po administration was 0.5% MC. Blood was collected at multiple time points after iv administration and po administration for the PK study. Plasma samples and liver tissue samples were subjected to protein precipitation, followed by LC-MS/MS analysis. The mass spectrometer was API 5500, and the liquid chromatograph is a Waters ACQUITY I CLASS system; the chromatographic column was an Agela ASB C18 column (2.1 mm×50 mm, 1.9 μm); mobile phase A was water+0.1% formic acid, and phase B was acetonitrile; the flow rate was 0.4 mL/min, and the column temperature was 40° C. The ion source was an ESI source in a positive ion mode, and the scanning manner is multiple reaction monitoring (MRM).

Data set [5] deals with HepG2.2.15 cells. Nature of the data set: Cytotoxicity detection (CellTiter-Glo). The class given is cell-based. Particulars: 4 days, highest concentration 150 μM. The method, then: as §1
Setting [6] is: HepG2.2.15, HBV DNA replication.

Read-outs that look alike come from different tables or passages of the source.

The EC50 is the concentration needed to bring the measured effect to its halfway point. The CC50 is the concentration at which the toxic effect on the cells reaches its halfway point. A higher CC50 goes with lower toxicity to the cells. As usually defined, the IC50 is the concentration that gives 50% inhibition. One may read the AUC(0-inf) as total exposure, with the tail of the curve extrapolated. Lower therefore signals less exposure. In general, Cmax refers to the peak of the concentration-time curve. Regarding `CCOC(=O)C1=C(CN2C[C@@H](/C=C/C(=O)O)CC(F)(F)C2)NC(c2nccs2)=N[C@H]1c1ccc(F)cc1Cl` [10-230 of Example 26, (E)-3-((R)-1-(((R)-6-(2-chloro-4-fluorophenyl)-5-(ethoxycarbonyl)-2-(thiazol-2-yl)-3,6-dihydropyrimidin-4-yl)methyl)-5,5-difluoropiperidin-3-yl)acrylic Acid], the concentration for a half-maximal effect (EC50) in data set [1] (setting [6]) is 0.0112 µM. The compound further displayed a CC50 at 4 days in data set [2] of 137 µM. In data set [3], the IC50 is over 10 µM. Moreover, the Kp in data set [4] (po, po, 2.00 mg/kg, AUCINF liver/plasma, read-out: amount of exposure in liver relative to that in plasma) is about 10; in data set [4] (po, po, 2.00 mg/kg, Cmax liver/plasma, read-out: blood-drug concentration in liver relative to that in plasma) it was about 10. The area under the curve AUC(0-inf) in data set [4] (po, 2.00 mg/kg, liver) amounted to 2340 ng·h/mL; in data set [4] (po, 2.00 mg/kg, plasma), 236 ng·h/mL. In addition, the Cmax in data set [4] (po, 2.00 mg/kg, liver) is 1520 ng/mL; in data set [4] (po, 2.00 mg/kg, plasma), 179 ng/mL.
As a reminder, the bioavailability is the share of a dose that reaches the circulation, judged against a reference dose that is usually intravenous. For the compound `CCOC(=O)C1=C(CN2CCO[C@H](/C=C/C(=O)O)C2)NC(c2nccs2)=N[C@H]1c1ccc(F)cc1Cl` [10-226 of Example 25, (E)-3-((R)-4-(((R)-6-(2-chloro-4-fluorophenyl)-5-(ethoxycarbonyl)-2-(thiazol-2-yl)-3,6-dihydropyrimidin-4-yl)methyl)morpholin-2-yl)acrylic Acid], the EC50 in data set [1] (setting [6]) stood at 0.0092 µM. The compound further showed a CC50 at 4 days in data set [2] of over 150 µM. The IC50 in data set [3] was over 10 µM. Besides, in data set [4] (plasma, po, by gavage, 2.00 mg/kg, read-out: bioavailability (F)), the bioavailability worked out at 47.6%. Moreover, the total exposure AUC(0-inf) was found to be 2400 ng·h/mL in data set [4] (iv, 1.00 mg/kg, plasma); 3030 ng·h/mL in data set [4] (po, 2.00 mg/kg, liver); 2290 ng·h/mL in data set [4] (po, 2.00 mg/kg, plasma). Further, the highest concentration (Cmax) in data set [4] (iv, 1.00 mg/kg, plasma) was 2890 ng/mL; in data set [4] (po, 2.00 mg/kg, liver), 1690 ng/mL; in data set [4] (po, 2.00 mg/kg, plasma), 2180 ng/mL.
In turn, `CCOC(=O)C1=C(CN2CCC(O)C(F)(F)C2)NC(c2nccs2)=N[C@H]1c1ccc(F)cc1Cl` (single isomer, unassigned) [Isomer A of Example 4] yielded an EC50 in data set [1] (HBV DNA replication) of 0.0351 µM. In data set [5], this compound came in with a cytotoxic concentration (CC50) of 43.9 µM. Also, the IC50 in data set [3] was over 10 µM.
For `CCOC(=O)C1=C(CN2C[C@@H](F)[C@H](OCC(=O)O)C2)NC(c2nccs2)=N[C@H]1c1ccc(F)cc1Cl` [10-36 of Example 10, 2-(((3R,4R)-1-(((R)-6-(2-chloro-4-fluorophenyl)-5-(ethoxycarbonyl)-2-(thiazol-2-yl)-3,6-dihydropyrimidin-4-yl)methyl)-4-fluoropyrrolidin-3-yl)oxy)acetic acid], the midpoint of the response in data set [1] (setting [6]), the EC50, lay at 0.0981 µM. This compound displayed a cytotoxic concentration (CC50) at 4 days in data set [2] of over 150 µM. Further, in data set [3], the IC50 was over 10 µM.
For `CCOC(=O)C1=C(CN2CCC(O)C(F)(F)C2)NC(c2nccs2)=N[C@H]1c1ccc(F)cc1Cl` (single isomer, unassigned) [Isomer B of Example 4], the EC50 in data set [1] (setting [6]) worked out at 0.0347 µM. For the same compound, the midpoint of cytotoxicity in data set [2], the CC50 at 4 days, lay at 51.3 µM. Besides, the IC50 in data set [3] was over 10 µM.

(Values after US11166954B2, “Dihydropyrimidine compound and preparation method and use thereof” (SICHUAN KELUN-BIOTECH BIOPHARMACEUTICAL CO., LTD., priority 2016, dated 2021).)
